PMC3115046, “Analyzing Airway Inflammation with Chemical Biology: Dissection of Acidic Mammalian Chitinase Function with a Selective Drug-like Inhibitor” (Chemistry & Biology, 2011)
“And” between values parts separate entries of the source, which are not always exact repeats. Identical values can stand only once.

Columns and labels:
[1] = tested on: lung tissue gene expression; assay: Lung mRNA expression by quantitative RT-PCR, OVA model; format: in vivo, BALB/c mice
Description: All experiments used female BALB/c mice, 6- to 8-weeks-old. Mice were kept in individually ventilated cages and all experiments were conducted under UK Home Office guidelines. Mice were sensitized (day 0) and boosted (day 14) i.p. with 20 μg OVA (Grade V, Sigma) adsorbed to 9% potassium alum. Mice were either challenged on day 28 and 30 with 50 μg OVA or PBS by the intratracheal route or were challenged with 1% OVA or PBS by aerosol for 30 min on day 28 to day 30. […] Necropsies were performed 24 hr after the final airway challenge. One part of the left lobe of the lung, removed following BALF, was stored in RNAlater (Ambion) at 4°C for up to 4 weeks. Lung samples were homogenized in RLT lysis buffer using TissueLyser (QIAGEN) and total RNA extracted using RNeasy mini spin columns (QIAGEN). RNA (1 μg) was used for synthesis of cDNA using Moloney murine leukemia virus reverse transcriptase. Relative quantification of genes was carried out by RT-PCR using the Roche Lightcycler, as previously described ([Nair et al., 2005]). PCR amplication was analyzed using 2nd derivative Maximum alogarithm (LightCycler 480 SW 1.5, Roche) and the expression of the gene of interest was normalized to the housekeeping gene, GAPDH. Primer sequences used were as follows: GAPDH-For [NT], Rev [NT]1-For [NT], Rev [NT] Collagen I-For [NT], Rev [NT]-1α-For [NT], Rev […]-12-For [NT], Rev [NT]; and TIMP-1-For [NT], Rev [NT]

[2] = tested on: inflammatory cell recruitment in bronchoalveolar lavage; assay: Bronchoalveolar lavage cell counts, OVA allergic inflammation model; format: in vivo, BALB/c mice
Description: All experiments used female BALB/c mice, 6- to 8-weeks-old. Mice were kept in individually ventilated cages and all experiments were conducted under UK Home Office guidelines. Mice were sensitized (day 0) and boosted (day 14) i.p. with 20 μg OVA (Grade V, Sigma) adsorbed to 9% potassium alum. Mice were either challenged on day 28 and 30 with 50 μg OVA or PBS by the intratracheal route or were challenged with 1% OVA or PBS by aerosol for 30 min on day 28 to day 30. […] Necropsies were performed 24 hr after the final airway challenge. […] Total cell numbers were counted and cytospins prepared for differential cell counts, which were assessed by morphology following Diff Quick staining ([…]). BALF was centrifuged at 1200 × g and supernatant stored at -20°C for further analysis.

[3] = target: T1, recombinant mAMCase (Mus musculus, UniProt Q91XA9); assay: Recombinant mAMCase (COS-7 cell-free supernatant) chitinase activity assay; format: biochemical; details: 10 min at 37°C, read-out: IC50 against recombinant mAMCase
T1 construct: The full-length-coding region of mAMCase was amplified using a lung cDNA template; V5/His; made in house; cell-free, serum-free supernatant used as enzyme source
Description: Chitinase activity was determined using a fluorescent 4-methylumbelliferyl (4-MU) substrate. […] Chitinase activity is measured relative to the amount of substrate hydrolysed/hr/mL sample.
The full-length-coding region of mAMCase was amplified using a lung cDNA template. The cDNA fragment was directionally cloned into pcDNA3.1 (Invitrogen), to generate a V5/His tagged plasmid. TOP10 competent cells were transformed with the AMCase plasmid and sequence confirmed. Mammalian COS-7 cells were transfected with AMCase-pcDNA3.1 plasmid using Lipofectamine 2000 (Invitrogen). COS-7 cell supernatants were screened for AMCase protein by western blot and chitinase activity. A stable AMCase-expressing cell line was generated using G418 selection medium (RPMI).
Chitinase activity of hAMCase, lung homogenates, or AMCase COS-7 cell supernatants (serum-free) were determined using 4-methylumbelliferyl-β-D-N,N′,N″-triacetylchitotrioside and 4-methylumbelliferyl-β-D-N,N′,N″-triacetylchitobioside, as described. Samples were incubated with substrate (0.022 mM in 100 mM citric acid, 200 mM sodium phosphate buffer [pH 5.2]) in a final volume of 50 μL. […] Liberated 4-methlyumberlliferone was quantified using a microplate fluorometer (excitation 360 nm/emission 440 nm). Ki and IC50 values were determined in the presence of different concentrations of inhibitor. Experiments were performed in duplicate or triplicate.

[4] = tested on: ventilatory function (penH); assay: Ventilatory function (penH) after methacholine, whole-body plethysmography; format: in vivo, BALB/c mice
Description: All experiments used female BALB/c mice, 6- to 8-weeks-old. Mice were kept in individually ventilated cages and all experiments were conducted under UK Home Office guidelines. Mice were sensitized (day 0) and boosted (day 14) i.p. with 20 μg OVA (Grade V, Sigma) adsorbed to 9% potassium alum. Mice were either challenged on day 28 and 30 with 50 μg OVA or PBS by the intratracheal route or were challenged with 1% OVA or PBS by aerosol for 30 min on day 28 to day 30. […] Necropsies were performed 24 hr after the final airway challenge. […] Briefly, conscious mice were placed in individual chambers for a 10 min acclimatization period. Spontaneous breathing patterns in mice relate to changes in chamber air pressure, which are measured by a transducer attached to the chamber wall. Differences in the rates of pressure change during peak inspiration and peak expiration and the timing of expiration are used to calculate penH according to the following equation; penH = ((expiratory time/relaxation time) – 1) × (peak expiratory flow (mL/s)/peak inspiratory flow (ml/s)). PenH measurements are not used as a quantitative measurement that relates to airway size and rather reflect changes to ventilation following bronchoconstriction. Baseline measurements of penH were made following an aerosol of PBS. […]

[5] = 1 and 5 mg/kg i.p., allergic animals
[6] = 5 mg/kg i.p., OVA-challenged mice

T1 sequence (Q91XA9 22-473): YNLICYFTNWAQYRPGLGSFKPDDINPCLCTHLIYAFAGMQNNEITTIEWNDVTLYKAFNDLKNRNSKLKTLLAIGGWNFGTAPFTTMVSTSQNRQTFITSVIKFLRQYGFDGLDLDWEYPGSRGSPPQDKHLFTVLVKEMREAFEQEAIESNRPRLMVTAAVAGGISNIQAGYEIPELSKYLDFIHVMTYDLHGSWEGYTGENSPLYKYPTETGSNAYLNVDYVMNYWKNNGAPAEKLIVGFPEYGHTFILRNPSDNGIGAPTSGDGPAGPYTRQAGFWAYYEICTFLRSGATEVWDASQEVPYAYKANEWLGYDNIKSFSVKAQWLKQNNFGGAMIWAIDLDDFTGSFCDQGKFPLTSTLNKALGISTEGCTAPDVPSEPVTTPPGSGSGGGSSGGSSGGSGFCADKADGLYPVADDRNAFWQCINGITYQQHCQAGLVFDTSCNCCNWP

**Q.** Which results are given for `Cn1cnc2c1c(=O)n(CCCn1c(=O)c3[nH]cnc3n(C)c1=O)c(=O)n2C` [bisdionin F]?
**A.** MIP-1α mRNA expression in lung ([1]; 5 mg/kg i.p., OVA-challenged animals): enhanced; MMP-12 mRNA expression in lung [1, 5]: significantly increased; TIMP-1 mRNA expression in lung [1, 5]: downregulated; Ym1 mRNA expression in lung [1, 5]: significantly increased; procollagen I mRNA expression in lung [1, 5]: significantly increased; enhancement of the ratio of MMP:TIMP expression ([1]; MMP-12:TIMP-1 mRNA, allergic animals): 2.5 fold; increase in neutrophil cell number in BALF vs vehicle-treated OVA-challenged mice ([2]; 5 mg/kg i.p.): 4 fold; number of eosinophils in BALF [2, 6]: reduction; number of lymphocytes in BALF [2, 6]: reduction; total cell airway infiltrates (BALF) ([2]; 5 mg/kg i.p., OVA-challenged mice, vs vehicle, p < 0.01): significantly reduced; total cell numbers (BALF) in PBS-challenged animals ([2]; 5 mg/kg i.p., PBS-challenged mice): not altered; eosinophilia of OVA-challenged mice ([2]; 1 and 5 mg/kg i.p.): reduced; increase in neutrophil cell number in BALF ([2]; 1 and 5 mg/kg i.p., OVA-challenged mice): 2- to 4 fold; reduction of eosinophil recruitment ([2]; doses that decreased penH in allergic animals): approximately 50%; IC50 [3]: 2210 nM and 2200 nM; penH in PBS-challenged animals ([4]; 5 mg/kg, data not shown): no effect; penH in allergic mice ([4]; 1 and 5 mg/kg i.p., highest concentration of methacholine): significantly reduced
